According to patent US20240010640A1, “ANTAGONISTS OF THE MUSCARINIC ACETYLCHOLINE RECEPTOR M4” (Vanderbilt University, priority 2020, published 2024):
pIC50: −log10 of the molar value.

What was measured:
Human M4 = biological target: T1, Human M4 (Homo sapiens, UniProt P08173); experiment: mAChR M4 cell-based functional assay (calcium flux, antagonist mode); conditions: for pIC50: Human M4/Gqi5 CHO-K1 cells, decrease of acetylcholine response; for Emin (% ACh maximum at 30 μM): Human M4
T1 construct: Human or rat M4 cDNA, along with the chimeric G protein Gqi5, were transfected into Chinese hamster ovary (CHO-K1) cells; expressed in transfected cells; host or cells: CHO-K1 (Chinese hamster ovary, ATCC), stably expressing M4 and Gqi5
T1 sequence (P08173 1-479): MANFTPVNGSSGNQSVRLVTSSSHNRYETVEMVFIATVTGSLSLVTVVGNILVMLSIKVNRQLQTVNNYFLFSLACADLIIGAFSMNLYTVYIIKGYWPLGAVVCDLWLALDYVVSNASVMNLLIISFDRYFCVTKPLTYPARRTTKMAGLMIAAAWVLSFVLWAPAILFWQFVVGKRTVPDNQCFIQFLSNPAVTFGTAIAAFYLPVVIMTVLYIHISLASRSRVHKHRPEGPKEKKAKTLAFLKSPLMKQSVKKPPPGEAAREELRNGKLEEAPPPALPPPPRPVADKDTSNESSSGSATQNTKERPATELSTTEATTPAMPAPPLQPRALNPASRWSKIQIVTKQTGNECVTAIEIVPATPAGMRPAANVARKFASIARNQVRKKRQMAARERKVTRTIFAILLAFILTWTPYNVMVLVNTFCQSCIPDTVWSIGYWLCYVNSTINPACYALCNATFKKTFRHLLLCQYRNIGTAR
Procedure: Human or rat M4 cDNA, along with the chimeric G protein Gqi5, were transfected into Chinese hamster ovary (CHO-K1) cells purchased from the American Type Culture Collection using Lipofectamine2000. M4/Gqi5/CHO cells were grown in Ham's F-12 medium containing 10% heat-inactivated fetal bovine serum (FBS), 20 mM HEPES, 500 μg/mL G418 sulfate, and 200 μg/mL Hygromycin B.
For high throughput measurement of agonist-evoked increases in intracellular calcium, CHO-K1 cells stably expressing muscarinic receptors were plated in growth medium lacking G418 and hygromycin at 15,000 cells/20 μL/well in Greiner 384-well black-walled, tissue culture (TC)-treated, clear-bottom plates (VWR). Cells were incubated overnight at 37° C. and 5% CO2. The next day, cells were washed using an ELX 405 (BioTek) with assay buffer; the final volume was then aspirated to 20 μL. Next, 20 μL of a 2.3 μM stock of Fluo-4/acetoxymethyl ester (Invitrogen, Carlsbad, CA), prepared as a 2.3 mM stock in DMSO and mixed in a 1:1 ratio with 10% (w/v) Pluronic F-127 and diluted in assay buffer, was added to the wells and the cell plates were incubated for 50 min at 37° C. and 5% CO2. Dye was removed by washing with the ELX 405 and the final volume was aspirated to 20 μL. Compound master plates were formatted in a 10 point concentration-response curve (CRC) format (1:3 dilutions) in 100% DMSO with a starting concentration of 10 or 1 mM using a BRAVO liquid handler (Agilent). Test compound CRCs were then transferred to daughter plates (240 nL) using the Echo acoustic plate reformatter (Labcyte, Sunnyvale, CA) and then diluted into assay buffer (40 μL) to a 2× stock using a Thermo Fisher Combi (Thermo Fisher Scientific, Waltham, MA).
Calcium flux was measured using the Functional Drug Screening System (FDSS) 6000 or 7000 (Hamamatsu Corporation, Tokyo, Japan) as an increase in the fluorescent static ratio. Compounds were applied to cells (20 μL, 2×) using the automated system of the FDSS at 2 seconds into the protocol and the data were collected at 1 Hz. At 143 s, 10 μL of an EC20 concentration of the muscarinic receptor agonist acetylcholine was added (5×), followed by the addition of 12 μL of an […] concentration of acetylcholine at the 268 s time point (5×). Agonist activity was analyzed as a concentration-dependent increase in calcium mobilization upon compound addition. Positive allosteric modulator activity was analyzed as a concentration-dependent increase in the EC20 acetylcholine response. Antagonist activity was analyzed as a concentration-dependent decrease in the EC80 acetylcholine response; for the purposes of the tables herein, an IC50 (inhibitory concentration 50) was calculated as a concentration-dependent decrease of the response elicited by an […] concentration of acetylcholine. Concentration-response curves were generated using a four-parameter logistical equation in XLFit curve fitting software (IDBS, Bridgewater, NJ) for Excel (Microsoft, Redmond, WA) or Prism (GraphPad Software, Inc., San Diego, CA) or the Dotmatics software platform (Dotmatics, Bishop's Stortford, UK).
Compounds were synthesized as described above. Activity (IC50 and Emin) was determined in the mAChR M4 cell-based functional assay as described above and the data are shown in Table 1.

M4 knockout mice = conditions: but not the other four mAChR subtypes; cited from earlier work
[1] = test system: catalepsy induced by the DA receptor antagonist haloperidol; conditions: cited from earlier work

Row | Compound | pIC50 (Human M4) | Emin (% ACh maximum at 30 μM) (Human M4) [%] | locomotor-activating effects (M4 knockout mice) | reduction of haloperidol-induced catalepsy ([1]; M4 KO mice) | reversal of haloperidol-induced catalepsy ([1]; WT mice)
1 | [2H]C([2H])(C1CCOCC1)N1C[C@H]2C[C@H](Nc3ccc(-c4cc(F)c(=O)n(C)c4)nn3)C[C@H]2C1 [A18, 3-fluoro-1-methyl-5-(6-(((3aR,5s,6aS)-2-((tetrahydro-2H-pyran-4-yl)methyl-d2)octahydrocyclopenta[c]pyrrol-5-yl)amino)pyridazin-3-yl)pyridin-2(1H)-one] | 7.94 | 4 | – | – | –
2 | Cn1cccc(-c2cnc(N[C@H]3C[C@@H]4CN(CC5CCOCC5)C[C@@H]4C3)nc2)c1=O [B1, 1-methyl-3-(2-(((3aR,5s,6aS)-2-((tetrahydro-2H-pyran-4-yl)methyl)octahydrocyclopenta[c]pyrrol-5-yl)amino)pyrimidin-5-yl)pyridin-2(1H)-one] | 5.47 | 10 | – | – | –
3 | CN1[C@@H]2C[C@@H](OC(=O)[C@H](CO)c3ccccc3)C[C@H]1[C@@H]1O[C@@H]12 [scopolamine] | – | – | dramatically reduced | ineffective | completely reversed
